Experimental data: PubChem BioAssay (NCI)
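Grown in 96-well plates, cells were treated for 48 hours with each compound at five concentrations. Insufficient inhibition: endpoint recorded as highest concentration tested. GI50 marks 50% less growth. TGI denotes the concentration required for complete inhibition of growth.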

Experiments:
Test in all cases: NCI tumour cell line growth inhibition, 48 h
KM20L2 colon = tested on: KM20L2 colon
HOP-18 NSCLC = tested on: HOP-18 NSCLC
DLD-1 colon = tested on: DLD-1 colon
RXF 393 renal = tested on: RXF 393 renal
EKVX NSCLC = tested on: EKVX NSCLC
MALME-3M melanoma = tested on: MALME-3M melanoma
LOX IMVI melanoma = tested on: LOX IMVI melanoma
XF 498 CNS = tested on: XF 498 CNS
DMS 114 small cell lung = tested on: DMS 114 small cell lung
ACHN renal = tested on: ACHN renal
LXFL 529 NSCLC = tested on: LXFL 529 NSCLC
DMS 273 small cell lung = tested on: DMS 273 small cell lung
SN12K1 renal = tested on: SN12K1 renal
NCI/ADR-RES ovarian = tested on: NCI/ADR-RES ovarian
MDA-MB-435 = tested on: MDA-MB-435
MDA-MB-231 breast = tested on: MDA-MB-231 breast
DU-145 prostate = tested on: DU-145 prostate

Structure (SMILES) | TGI (KM20L2 colon) | TGI (HOP-18 NSCLC) | TGI (DLD-1 colon) | TGI (RXF 393 renal) | TGI (EKVX NSCLC) | TGI (MALME-3M melanoma) | TGI (LOX IMVI melanoma) | TGI (XF 498 CNS) | TGI (DMS 114 small cell lung) | TGI (ACHN renal) | TGI (LXFL 529 NSCLC) | TGI (DMS 273 small cell lung) | TGI (SN12K1 renal) | TGI (NCI/ADR-RES ovarian) | TGI (MDA-MB-435) | TGI (MDA-MB-231 breast) | TGI (DU-145 prostate) | GI50 (MDA-MB-231 breast) | GI50 (NCI/ADR-RES ovarian) | GI50 (ACHN renal)
OCC(O)COc1ccc(Br)cc1 (configuration not stated) | > 100 µM | > 100 µM | > 100 µM | > 100 µM | > 100 µM | > 100 µM | > 100 µM | > 100 µM | > 100 µM | > 100 µM | > 100 µM | > 100 µM |  |  |  |  |  |  |  | 
Cc1ccc(OP2(=O)Oc3ccc4ccccc4c3CN2c2ccc(Cl)cc2)cc1C (configuration not stated) | > 100 µM | > 100 µM | > 100 µM | > 100 µM | > 100 µM | > 100 µM | > 100 µM | > 100 µM | > 100 µM |  |  | > 100 µM | > 100 µM | > 100 µM |  |  |  |  |  | 
COc1ccc(C(=O)C2CC3(CCC2(O)c2ccc(OC)cc2)CC(=O)Nc2ccccc2C3=O)cc1 (configuration not stated) |  |  |  | > 100 µM | > 100 µM | > 100 µM | > 100 µM |  |  |  |  |  |  | > 100 µM | > 100 µM | > 100 µM | > 100 µM |  |  | 
CO/C(=N\N=C(/C)C(F)(F)F)c1ccncc1 |  |  |  | > 100 µM |  | > 100 µM |  |  |  |  |  |  |  | > 100 µM | > 100 µM | > 100 µM | > 100 µM |  |  | 
CCOc1ncn(-c2ccc(NC(=S)Nc3cccc(O)c3)cc2)n1 |  |  |  |  | > 100 µM |  | > 100 µM |  |  |  |  |  |  |  | > 100 µM | > 100 µM | > 100 µM |  |  | 
ClCCN(CCCl)Cc1ccc(Nc2ccnc3cc(Cl)ccc23)cc1 |  |  |  |  |  |  |  |  |  | > 100 µM |  |  |  | 7.36 µM |  | 3.49 µM |  | 1.66 µM | 2.17 µM | 0.548 µM
COc1ccc2c(O)c3[n+](cc2c1OC)CCc1cc2c(cc1-3)OCO2 |  |  |  | 85.7 µM | > 100 µM |  | > 100 µM |  |  | > 100 µM |  |  |  | > 100 µM | 69.3 µM | > 100 µM | > 100 µM |  |  | 
